Where two headings read alike, the source gives them in different places.
How the values were obtained:
[1] = molecular target: T1, hURAT1 (Homo sapiens, UniProt Q96S37); type: cell-based; conditions: for KT urate / Vmax: fit of the data set with this inhibitor, 95% CI; for Mode of inhibition of [14C]-urate uptake: competitive versus non-competitive fits
T1 sequence (Q96S37 1-553): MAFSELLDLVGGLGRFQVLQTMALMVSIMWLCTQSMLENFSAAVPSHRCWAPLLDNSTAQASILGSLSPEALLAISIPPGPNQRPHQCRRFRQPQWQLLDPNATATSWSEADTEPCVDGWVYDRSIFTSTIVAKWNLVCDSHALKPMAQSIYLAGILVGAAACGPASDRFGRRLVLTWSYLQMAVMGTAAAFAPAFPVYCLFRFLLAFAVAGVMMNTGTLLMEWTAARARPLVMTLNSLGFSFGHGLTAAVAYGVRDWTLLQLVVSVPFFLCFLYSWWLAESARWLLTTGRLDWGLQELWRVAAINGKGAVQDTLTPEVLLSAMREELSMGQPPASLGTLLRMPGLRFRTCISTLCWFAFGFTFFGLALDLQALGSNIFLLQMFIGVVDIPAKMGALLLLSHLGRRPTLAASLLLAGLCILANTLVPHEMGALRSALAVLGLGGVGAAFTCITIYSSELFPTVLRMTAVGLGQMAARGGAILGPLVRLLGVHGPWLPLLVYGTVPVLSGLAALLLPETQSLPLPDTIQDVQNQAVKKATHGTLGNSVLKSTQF

[2] = system: URAT1CS; type: cell-based; conditions: HEK293T cells expressing hURAT1 versus URAT1CS

Row | KT urate ([1]; Competitive model) | Vmax ([1]; Competitive model) | KT urate ([1]; Non-competitive model) | Vmax ([1]; Non-competitive model) | Mode of inhibition of [14C]-urate uptake [1] | Inhibitor binding to URAT1CS as judged from IC50 [2] | Structure (SMILES)
1 | 26.08 [11.29–48.59] µM | 1591 [1355–1846] pmol min^−1 mg^−1 | 32.4 [20.7–47.9] µM | 1700 [1530–1881] pmol min^−1 mg^−1 | non-competitively | high affinity | CCc1oc2ccccc2c1C(=O)c1cc(Br)c(O)c(Br)c1 [BBR, benzbromarone]
2 | 162.8 [126.4–210.1] µM | 3625 [3335–3955] pmol min^−1 mg^−1 | 175.1 [148.8–206.5] µM | 3725 [3522–3947] pmol min^−1 mg^−1 | non-competitively |  | O=C(O)CSc1nnc(Br)n1-c1ccc(C2CC2)c2ccccc12 [LESU, lesinurad]

— publication PMC12137875 (Nature Communications, 2025)
